Experimental data: ChEMBL document CHEMBL3232809, “Synthesis, antibiotic activity and structure-activity relationship study of some 3-enaminetetramic acids” (2014)

Legend:
Format in all cases: functional
Staphylococcus aureus [1] = experiment: Antimicrobial activity against vancomycin-susceptible Staphylococcus aureus ATCC 25923
Streptococcus pneumoniae [2] = experiment: Antimicrobial activity against penicillin- and erythromycin-resistant Streptococcus pneumoniae
Escherichia coli [3] = experiment: Antimicrobial activity against Escherichia coli ATCC 25922
Enterococcus faecium = experiment: Antimicrobial activity against vancomycin-resistant Enterococcus faecium
Pseudomonas aeruginosa = experiment: Antimicrobial activity against Pseudomonas aeruginosa ATCC 27853
Staphylococcus aureus [4] = experiment: Antimicrobial activity against methicillin-sensitive Staphylococcus aureus ATCC 13709
Enterococcus faecalis = experiment: Antimicrobial activity against vancomycin-susceptible Enterococcus faecalis ATCC 29212
Streptococcus pneumoniae [5] = experiment: Antimicrobial activity against penicillin- and erythromycin-resistant Streptococcus pneumoniae in presence of 2.5% horse blood
Staphylococcus aureus [6] = experiment: Antimicrobial activity against Staphylococcus aureus Oxford
Staphylococcus aureus [7] = experiment: Antimicrobial activity against methicillin-resistant Staphylococcus aureus
Haemophilus influenzae [8] = experiment: Antimicrobial activity against LS2 Efflux knock-out Haemophilus influenzae
Haemophilus influenzae [9] = experiment: Antimicrobial activity against Haemophilus influenzae ATCC 31517 MMSA
Escherichia coli [10] = experiment: Antimicrobial activity against Escherichia coli 50
Streptococcus pneumoniae [11] = experiment: Antimicrobial activity against erythromycin-susceptible Streptococcus pneumoniae ATCC 49619
Escherichia coli [12] = experiment: Antimicrobial activity against Escherichia coli 49

Measured: MIC

C/C(NCCOc1ccccc1)=C1/C(=O)[C@@H]2CO[C@@H](C(C)(C)C)N2C1=O
> 32 µg/mL: Staphylococcus aureus [1] | Streptococcus pneumoniae [2] | Escherichia coli [3] | Enterococcus faecium | Pseudomonas aeruginosa | Staphylococcus aureus [4] | Enterococcus faecalis | Streptococcus pneumoniae [5] | Staphylococcus aureus [6] | Staphylococcus aureus [7] | Haemophilus influenzae [8] | Haemophilus influenzae [9] | Escherichia coli [10] | Streptococcus pneumoniae [11] | Escherichia coli [12]

C/C(NCCOc1ccccc1)=C1/C(=O)[C@@H]2CCCC(=O)N2C1=O
> 32 µg/mL: Staphylococcus aureus [1] | Streptococcus pneumoniae [2] | Escherichia coli [3] | Enterococcus faecium | Pseudomonas aeruginosa | Staphylococcus aureus [4] | Enterococcus faecalis | Streptococcus pneumoniae [5] | Staphylococcus aureus [6] | Staphylococcus aureus [7] | Haemophilus influenzae [8] | Haemophilus influenzae [9] | Escherichia coli [10] | Streptococcus pneumoniae [11] | Escherichia coli [12]

C/C(NCCOc1ccccc1Cl)=C1/C(=O)[C@@H]2CCCC(=O)N2C1=O
> 32 µg/mL: Staphylococcus aureus [1] | Streptococcus pneumoniae [2] | Escherichia coli [3] | Enterococcus faecium | Pseudomonas aeruginosa | Staphylococcus aureus [4] | Enterococcus faecalis | Streptococcus pneumoniae [5] | Staphylococcus aureus [6] | Staphylococcus aureus [7] | Haemophilus influenzae [8] | Haemophilus influenzae [9] | Escherichia coli [10] | Streptococcus pneumoniae [11] | Escherichia coli [12]

C/C(NCCOc1ccccc1Cl)=C1/C(=O)CNC1=O
> 32 µg/mL: Staphylococcus aureus [1] | Streptococcus pneumoniae [2] | Escherichia coli [3] | Enterococcus faecium | Pseudomonas aeruginosa | Staphylococcus aureus [4] | Enterococcus faecalis | Streptococcus pneumoniae [5] | Staphylococcus aureus [6] | Staphylococcus aureus [7] | Haemophilus influenzae [8] | Haemophilus influenzae [9] | Escherichia coli [10] | Streptococcus pneumoniae [11] | Escherichia coli [12]

COC(=O)[C@@]12CO[C@@H](C(C)(C)C)N1C(=O)/C(=C(\C)Nc1ccccc1)C2=O
> 32 µg/mL: Staphylococcus aureus [1] | Streptococcus pneumoniae [2] | Escherichia coli [3] | Enterococcus faecium | Pseudomonas aeruginosa | Staphylococcus aureus [4] | Enterococcus faecalis | Streptococcus pneumoniae [5] | Staphylococcus aureus [6] | Staphylococcus aureus [7] | Haemophilus influenzae [8] | Haemophilus influenzae [9] | Escherichia coli [10] | Streptococcus pneumoniae [11] | Escherichia coli [12]

CCOC(=O)[C@]12CO[C@H](C(C)(C)C)N1C(=O)/C(=C(\C)Nc1ncc(Cl)cn1)C2=O
> 32 µg/mL: Staphylococcus aureus [1] | Streptococcus pneumoniae [2] | Escherichia coli [3] | Enterococcus faecium | Pseudomonas aeruginosa | Staphylococcus aureus [4] | Enterococcus faecalis | Streptococcus pneumoniae [5] | Staphylococcus aureus [6] | Staphylococcus aureus [7] | Haemophilus influenzae [8] | Haemophilus influenzae [9] | Escherichia coli [10] | Streptococcus pneumoniae [11] | Escherichia coli [12]

CCCCCCC/C=C/C(=O)N1C(=O)/C(=C(\C)Nc2ccc(N3CCOCC3)cc2)C(=O)C1CC(C)C (stereo not given)
> 32 µg/mL: Staphylococcus aureus [1] | Streptococcus pneumoniae [2] | Escherichia coli [3] | Enterococcus faecium | Pseudomonas aeruginosa | Staphylococcus aureus [4] | Enterococcus faecalis | Streptococcus pneumoniae [5] | Staphylococcus aureus [6] | Staphylococcus aureus [7] | Haemophilus influenzae [8] | Haemophilus influenzae [9] | Escherichia coli [10] | Streptococcus pneumoniae [11] | Escherichia coli [12]

CCCCCCN/C(=C1/C(=O)CNC1=O)c1ccccc1
> 32 µg/mL: Staphylococcus aureus [1] | Streptococcus pneumoniae [2] | Escherichia coli [3] | Enterococcus faecium | Pseudomonas aeruginosa | Staphylococcus aureus [4] | Enterococcus faecalis | Streptococcus pneumoniae [5] | Staphylococcus aureus [6] | Staphylococcus aureus [7] | Haemophilus influenzae [8] | Haemophilus influenzae [9] | Escherichia coli [10] | Streptococcus pneumoniae [11] | Escherichia coli [12]

O=C1CNC(=O)/C1=C(\NC1CCCCC1)c1cccc2ccccc12
> 32 µg/mL: Staphylococcus aureus [1] | Streptococcus pneumoniae [2] | Escherichia coli [3] | Enterococcus faecium | Pseudomonas aeruginosa | Staphylococcus aureus [4] | Enterococcus faecalis | Streptococcus pneumoniae [5] | Staphylococcus aureus [6] | Staphylococcus aureus [7] | Haemophilus influenzae [8] | Haemophilus influenzae [9] | Escherichia coli [10] | Streptococcus pneumoniae [11] | Escherichia coli [12]

O=C1CNC(=O)/C1=C(\NCc1ccccc1)c1cccc2ccccc12
> 32 µg/mL: Staphylococcus aureus [1] | Streptococcus pneumoniae [2] | Escherichia coli [3] | Enterococcus faecium | Pseudomonas aeruginosa | Staphylococcus aureus [4] | Enterococcus faecalis | Streptococcus pneumoniae [5] | Staphylococcus aureus [6] | Staphylococcus aureus [7] | Haemophilus influenzae [8] | Haemophilus influenzae [9] | Escherichia coli [10] | Streptococcus pneumoniae [11] | Escherichia coli [12]

CCCCCCCCCCCCC/C(Nc1ccccc1)=C1\C(=O)CNC1=O
> 32 µg/mL: Staphylococcus aureus [1] | Streptococcus pneumoniae [2] | Escherichia coli [3] | Enterococcus faecium | Pseudomonas aeruginosa | Staphylococcus aureus [4] | Enterococcus faecalis | Streptococcus pneumoniae [5] | Staphylococcus aureus [6] | Staphylococcus aureus [7] | Haemophilus influenzae [8] | Haemophilus influenzae [9] | Escherichia coli [10] | Streptococcus pneumoniae [11] | Escherichia coli [12]

CCCCCC/C(Nc1ccc(N2CCOCC2)cc1)=C1\C(=O)CNC1=O
> 32 µg/mL: Staphylococcus aureus [1] | Streptococcus pneumoniae [2] | Escherichia coli [3] | Enterococcus faecium | Pseudomonas aeruginosa | Staphylococcus aureus [4] | Enterococcus faecalis | Streptococcus pneumoniae [5] | Staphylococcus aureus [6] | Staphylococcus aureus [7] | Haemophilus influenzae [8] | Haemophilus influenzae [9] | Escherichia coli [10] | Streptococcus pneumoniae [11] | Escherichia coli [12]

CCCCCCCCCCC/C(Nc1ccc(N)cc1)=C1\C(=O)CN(CCCCCC)C1=O
> 32 µg/mL: Staphylococcus aureus [1] | Streptococcus pneumoniae [2] | Escherichia coli [3] | Enterococcus faecium | Pseudomonas aeruginosa | Staphylococcus aureus [4] | Enterococcus faecalis | Streptococcus pneumoniae [5] | Staphylococcus aureus [6] | Staphylococcus aureus [7] | Haemophilus influenzae [8] | Haemophilus influenzae [9] | Escherichia coli [10] | Streptococcus pneumoniae [11] | Escherichia coli [12]

CCCC(=O)N1CC(=O)/C(=C(\CCCCc2ccccc2)NC2CC(C)(C)N(C)C(C)(C)C2)C1=O
> 32 µg/mL: Staphylococcus aureus [1] | Streptococcus pneumoniae [2] | Escherichia coli [3] | Enterococcus faecium | Pseudomonas aeruginosa | Staphylococcus aureus [4] | Enterococcus faecalis | Streptococcus pneumoniae [5] | Staphylococcus aureus [6] | Staphylococcus aureus [7] | Haemophilus influenzae [8] | Haemophilus influenzae [9] | Escherichia coli [10] | Streptococcus pneumoniae [11] | Escherichia coli [12]

CCCCCCC(=O)N1CC(=O)/C(=C(\CCCOc2ccccc2)NCCCOC(C)C)C1=O
> 32 µg/mL: Staphylococcus aureus [1] | Streptococcus pneumoniae [2] | Escherichia coli [3] | Enterococcus faecium | Pseudomonas aeruginosa | Staphylococcus aureus [4] | Enterococcus faecalis | Streptococcus pneumoniae [5] | Staphylococcus aureus [6] | Staphylococcus aureus [7] | Haemophilus influenzae [8] | Haemophilus influenzae [9] | Escherichia coli [10] | Streptococcus pneumoniae [11] | Escherichia coli [12]
